Marks after values point to notes of the source that are not given here.
How the values were obtained:
Format in all cases: biochemical
[1] = tested on: LDL isolated from human plasma; assay: In vitro LDL oxidation inhibition, statements covering both induction systems or both product types; details: for Pro-oxidant effect (statement): 5-50 mg L^−1
Description: (§1) Two oxidation induction methods were used: copper sulfate and 2,2′-azobis(2-methylpropionamidine)dihydrochloride (AAPH). For both induction systems, 100 μg/mL of final LDL protein concentration was used. LDL was oxidized at the presence of 10 μM final concentration of Cu^2+and 5 mM final concentration of AAPH separately at 37° C. for 4 h in the dark. […] Oxidation was terminated by adding a 1:1 mixture of 1 mM solution of ethylenediaminetetraacetic acid (EDTA) and 1 mM solution of butylated hydroxytoluene (BHT).
(§2) Two main constituents of TAE and oleanolic acid, which is an isomer of ursolic acid, were also used to investigate the concentration-responsiveness. The same concentrations of Cu^2+ and AAPH were used and the oxidation was terminated by a 1:1 mixture of EDTA and BHT as explained earlier under this section.
TBARS were measured according to the method of Xu et al., J. Food Sci., 2007, 72: S522-S527 with slight modifications. […]. The mixture was incubated at 95° C. for 30 min to develop a pink chromogen. After cooling to room temperature tubes were centrifuged at 1500 g for 15 min and the fluorescence was measured using the FLUOstar OPTIMA plate reader (BMG Labtech Inc. Canada). Excitation and emission wavelengths used were 532 and 590 nm, respectively. TBARS activity was expressed as the percent inhibition (Equation 1) of LDL oxidation with comparison to the positive control, where F is fluorescence:
The formation of hydroperoxides was measured by the lipid compatible formulation of the Peroxoquant™ quantitative peroxide assay kit. LDL oxidation was induced by Cu^2+ or AAPH and incubated for 4 hrs at 37° C. in the dark. Hydroperoxides were measured following the manufacturer's instructions. Absorbance was measured at 595 nm using FLUOstar OPTIMA plate reader (BMG Labtech, Durham, N.C., USA). Activity of hydroperoxides was expressed as the percent inhibition of LDL with comparison to the positive control (Equation 1).

[2] = tested on: LDL isolated from human plasma; assay: TBARS assay, Cu2+-induced LDL oxidation
Description: (§3) To remove the inherent antioxidants, purchased LDL was dialyzed using Fisherbrand cellulose dialysis tubing (type T3 membrane, Thermo Fisher Scientific Inc., Ottawa, ON, Canada) against PBS containing 0.138 M NaCl and 0.0027 M KCl (pH 7.4, at 25° C.) at 4° C. for 24 hours. The buffer was changed every six hours. The dialyzed LDL was immediately used or stored at −80° C. in the dark under nitrogen and used within two to three weeks. Protein content of the dialyzed LDL was measured by the Lowry's method (Lowry et al., J. Biol. Chem., 1951, 193: […]) using bovine serum albumin as the standard.
as §1, §2
(§4) TBARS were measured according to the method of Xu et al., J. Food Sci., 2007, 72: S522-S527 with slight modifications. […] The mixture was incubated at 95° C. for 30 min to develop a pink chromogen. After cooling to room temperature tubes were centrifuged at 1500 g for 15 min and the fluorescence was measured using the FLUOstar OPTIMA plate reader (BMG Labtech Inc. Canada). Excitation and emission wavelengths used were 532 and 590 nm, respectively. TBARS activity was expressed as the percent inhibition (Equation 1) of LDL oxidation with comparison to the positive control, where F is fluorescence:
(§5) Percent inhibition (%)=100(Fpositive control−Fsample)/(Fpositive control) (1)

[3] = tested on: LDL isolated from human plasma; assay: TBARS assay, AAPH-induced LDL oxidation
Description: as §3, §1, §2, §4, §5

[4] = 50 mg L^−1, comparison of constituent compounds and metabolites (Table 4)

| SMILES | Pro-oxidant effect (statement) [1] | Percent inhibition of secondary LDL oxidation products, Cu induction ([2]; 0.0005 mg L^−1) | Percent inhibition of secondary LDL oxidation products, Cu induction ([2]; 0.001 mg L^−1) | Percent inhibition of secondary LDL oxidation products, Cu induction ([2]; 0.005 mg L^−1) | Percent inhibition of secondary LDL oxidation products, Cu induction ([2]; 0.01 mg L^−1) | Percent inhibition of secondary LDL oxidation products, Cu induction ([2]; 0.5 mg L^−1) | Percent inhibition of secondary LDL oxidation products, Cu induction ([2]; 1 mg L^−1) | Percent inhibition of secondary LDL oxidation products, Cu induction ([2]; 5 mg L^−1) | Percent inhibition of secondary LDL oxidation products, Cu induction ([2]; 10 mg L^−1) | Percent inhibition of secondary LDL oxidation products, AAPH induction ([3]; 0.0005 mg L^−1) | Percent inhibition of secondary LDL oxidation products, AAPH induction ([3]; 0.001 mg L^−1) | Percent inhibition of secondary LDL oxidation products, AAPH induction ([3]; 0.005 mg L^−1) | Percent inhibition of secondary LDL oxidation products, AAPH induction ([3]; 0.01 mg L^−1) | Percent inhibition of secondary LDL oxidation products, AAPH induction ([3]; 0.5 mg L^−1) | Percent inhibition of secondary LDL oxidation products, AAPH induction ([3]; 1 mg L^−1) | Percent inhibition of secondary LDL oxidation products, AAPH induction ([3]; 5 mg L^−1) | Percent inhibition of secondary LDL oxidation products, AAPH induction ([3]; 10 mg L^−1) | Percent inhibition of secondary LDL oxidation products, AAPH induction ([3]; 25 mg L^−1) | Percent inhibition of secondary LDL oxidation products, AAPH induction ([3]; 50 mg L^−1) | Percent inhibition of secondary LDL oxidation products, AAPH induction [3, 4] | further results |
| --- | --- | --- | --- | --- | --- | --- | --- | --- | --- | --- | --- | --- | --- | --- | --- | --- | --- | --- | --- | --- | --- |
| O=c1c(O[C@@H]2O[C@H](CO)[C@H](O)[C@H](O)[C@H]2O)c(-c2ccc(O)c(O)c2)oc2cc(O)cc(O)c12 [Quercetin-3-O-galactoside] | did not show any pro-oxidant effect | 6.39 ± 2.33^c % | 4.88 ± 0.76^c % | 4.64 ± 1.50^c % | −6.51 ± 2.90^d % | 6.20 ± 1.77^c % | 27.61 ± 0.58^b % | 87.87 ± 0.32^a % | 89.88 ± 0.50^a % | −29.51 ± 2.43^c % | −64.01 ± 6.16^c % | −35.63 ± 5.21^c % | −34.82 ± 4.98^c % | 37.82 ± 7.30^b % | 49.08 ± 3.10^b % | 88.62 ± 2.58^a % | 86.65 ± 1.82^a % | 85.58 ± 2.24^a % | 92.23 ± 1.87^a % | 141.68 ± 1.43^a % | LDL oxidation inhibition for both the induction systems ([1]; concentrations greater than 5 mg L^−1): more than 85%; Percent inhibition of secondary LDL oxidation products, Cu induction ([2]; 25 mg L^−1): 91.49 ± 0.88^a %; Percent inhibition of secondary LDL oxidation products, Cu induction ([2]; 50 mg L^−1): 92.73 ± 0.56^a %; Percent inhibition of secondary LDL oxidation products, Cu induction [2, 4]: 105.34 ± 0.30^ab % |
| O=C(O)[C@H]1O[C@@H](Oc2c(-c3ccc(O)c(O)c3)oc3cc(O)cc(O)c3c2=O)[C@H](O)[C@@H](O)[C@@H]1O [Quercetin-3-glucuronic acid] | did not show any pro-oxidant effect | 10.73 ± 1.68^e % | 23.06 ± 2.97^d % | 15.68 ± 2.22^e % | 14.85 ± 0.80^e % | 71.09 ± 1.34^c % | 88.59 ± 0.21^b % | 90.37 ± 2.31^b % | 94.2 ± 31.32^ab % | 11.79 ± 2.10^f % | 26.29 ± 1.68^d % | 24.12 ± 1.53^de % | −1.96 ± 3.37^g % | 4.32 ± 1.18^fg % | 13.31 ± 1.79^ef % | 55.17 ± 0.33^c % | 80.74 ± 3.27^a % | 66.69 ± 2.41^b % | 72.00 ± 0.97^ab % | 74.24 ± 1.36^d % | Protection against LDL oxidation, quercetin metabolites (statement) ([1]; 50 mg L^−1): best protection; Percent inhibition of secondary LDL oxidation products, Cu induction ([2]; 25 mg L^−1): 95.24 ± 0.71^ab %; Percent inhibition of secondary LDL oxidation products, Cu induction ([2]; 50 mg L^−1): 98.64 ± 0.47^a %; Percent inhibition of secondary LDL oxidation products, Cu induction [2, 4]: 49.40 ± 2.04^d % |
| O=c1c(O)c(-c2ccc(O)c(O)c2)oc2cc(O)cc(O)c12 [Quercetin] | did not show any pro-oxidant effect | 13.97 ± 2.56^d % | – | 8.07 ± 3.33^de % | 4.62 ± 1.03^e % | 75.68 ± 1.31^c % | 85.87 ± 1.55^b % | – | – | 13.41 ± 0.67^e % | 28.18 ± 2.19^d % | 23.17 ± 1.48^d % | 16.71 ± 1.18^e % | 46.78 ± 0.85^c % | 66.41 ± 0.83^b % | 86.62 ± 2.00^a % | 90.20 ± 0.63^a % | 92.04 ± 0.51^a % | 91.90 ± 0.69^a % | 85.06 ± 1.23^c % | Protection for Cu2+ induced LDL oxidation ([2]; beyond 1 mg L^−1): more than 80%; Protection for AAPH induced LDL oxidation ([3]; beyond 5 mg L^−1): more than 80% |

— patent publication US20130165396A1, “Apple Skin Extracts for Treating Cardiovascular Disease” (NATIONAL RESEARCH COUNCIL OF CANADA, priority 2010, published 2013)
